Earlier results on four molecules are cited in patent US7041676B2, “Compounds, compositions, and methods” (Cytokinetics, Inc., priority 2002, dated 2006).

The series has as its system A549 cells. Particulars: data provided by National Cancer Institute, Developmental Therapeutic Program.
In general, GI50 refers to the concentration that inhibits growth by half. Regarding `O=c1[nH]cc(F)c(=O)[nH]1` [5-fluorouracil], the GI50 was 1000 nM. Consider `COc1cccc2c1C(=O)c1c(O)c3c(c(O)c1C2=O)C[C@@](O)(C(=O)CO)C[C@@H]3O[C@H]1C[C@H](N)[C@H](O)[C@H](C)O1` [doxorubicin], for which the GI50 is 63 nM.

With `NC(=O)NO` [hydroxyurea], the GI50 is 500000 nM. For the molecule `CC(=O)O[C@H]1C(=O)[C@@]2(C)[C@H]([C@H](OC(=O)c3ccccc3)[C@]3(O)C[C@H](OC(=O)[C@H](O)[C@@H](NC(=O)c4ccccc4)c4ccccc4)C(C)=C1C3(C)C)[C@]1(OC(C)=O)CO[C@@H]1C[C@@H]2O` [paclitaxel], the GI50 was 4 nM.
